The nature of assay [1]: microbe, parasite or virus in culture. The conditions noted are these: Mycobacterium tuberculosis, 96 h, read-out: pIC50 (converted).
Assay [2] is described as follows: microbe, parasite or virus in culture. As to conditions: Mycobacterium tuberculosis, 72 h, read-out: pIC50 (converted).

Each structure is given as a SMILES string.

As to `Cc1ccc2[nH]c(C(=O)N3CCN(C)CC3)cc2c1`, the IC50 was 316 µM in assay [1] and 384 µM in assay [2].

As to `O=C(CCCc1ccccc1)NCc1ccccn1`, the IC50 in assay [1] is 234 µM; in assay [2] it was 168 µM.

For the compound `CCCn1nnc(NC(=O)COc2ccc(Cl)cc2)n1`, the IC50 in assay [1] was 272 µM; in assay [2], 237 µM.

As for `O=C(c1cnsn1)N1CCN(c2ccccn2)CC1`, the IC50 in assay [1] is 51.4 µM; in assay [2], 84.6 µM.

Consider `CCCNC(=O)c1ccc2snnc2c1`, for which the figures for the IC50 in assay [1] and in assay [2] were 169 µM and 153 µM, respectively.

With `Cc1c(C(=O)NC2=NCCS2)oc2ccccc12`, the IC50 in assay [1] was 247 µM; in assay [2] it was 279 µM.

For the compound `COc1cccc(CNc2ccccn2)c1O`, the IC50 in assay [1] and in assay [2] was more than 501 µM each time.

As to `Cc1cc(N2CCNCC2)nc2ccccc12`, the values for the IC50 in assay [1] and in assay [2] were 93.7 µM and 140 µM, respectively.

As for `CN(C)CCC(=O)c1ccc(F)cc1`, the IC50 in assay [1] was 177 µM; in assay [2] it was 92.2 µM.

As for `CCOc1ccccc1NC(=O)CSc1c[nH]nn1`, the IC50 in assay [1] was 195 µM; in assay [2], more than 501 µM.

For `O=C1CCCN1CCCNS(=O)(=O)c1ccc(Br)s1`, the IC50 was 6.97 µM in assay [1] and more than 501 µM in assay [2].

Consider `CCOc1ccc(Cl)cc1CNCCNCC(C)O` (configuration not stated), for which the IC50 in assay [1] is 30.7 µM; in assay [2], 254 µM.

Turning to `Cn1nnnc1NCc1cccc(Cl)c1Cl`, the IC50 in assay [1] and in assay [2] was more than 501 µM in each case.

As to `COc1ccc(C(=O)CCN(C)C)cc1`, the IC50 in assay [1] was 294 µM; in assay [2] it was 114 µM.

Turning to `COCC(=O)NCc1noc(-c2cccc(C)c2)n1`, the IC50 in assay [1] is 160 µM; in assay [2], 265 µM.

For `NC(=O)c1ccc(-c2nc(C3CCCC3)no2)o1`, the IC50 in assay [1] is 228 µM; in assay [2], 338 µM.

As for `CC(C)CS(=O)(=O)NCc1ccc2c(c1)OCO2`, the IC50 is more than 501 µM in assay [1] and 183 µM in assay [2].

On to `COc1ccc(C(=O)Nc2nonc2NC(C)=O)cc1`, for which the IC50 in assay [1] was 96.4 µM; in assay [2], more than 501 µM.

As for `COCCNC(=O)c1cc(-c2ccccc2F)no1`, the IC50 in assay [1] is 127 µM; in assay [2], 195 µM.

Regarding `CCc1ccc2c(c1)[C@@H](N)CCO2`, the IC50 in assay [1] and in assay [2] was more than 501 µM in each case.

As to `Cn1nc(CCN)c2ccccc21`, the results for the IC50 in assay [1] and in assay [2] were 197 µM and 57.8 µM, respectively.

`CCCNC(=O)c1cc(C(C)C)on1`: the IC50 in assay [1] is 44.3 µM; in assay [2], 9.31 µM.

`CCOCCC(=O)N1CCN(c2ccc(F)cc2)CC1`: the IC50 was 129 µM in assay [1] and 11.3 µM in assay [2].

In the case of `Cc1ccccc1OCCCNC(=O)NC[C@@H](C)O`, the IC50 in assay [1] and in assay [2] was more than 501 µM each time.

Take `O=C(c1cccc2cc[nH]c12)N1CCSCC1`: the IC50 in assay [1] and in assay [2] was more than 501 µM in each case.

Regarding `CC(C)c1cccc(CN[C@H](CO)C(C)C)n1`, the IC50 in assay [1] is more than 501 µM; in assay [2] it was 303 µM.

With `O=C1CCC2(CNC(=O)C3CC3)CCCC=C2N1` (configuration not stated), the IC50 in assay [1] and in assay [2] was more than 501 µM in each case.

For the compound `Nc1cc(C2CCN(C(=O)Cc3ccsc3)CC2)no1`, the IC50 in assay [1] was more than 501 µM; in assay [2], 264 µM.

For the compound `CC(C)Oc1ccc(C(CN)N(C)C)cc1` (configuration not stated), the results for the IC50 in assay [1] and in assay [2] were 225 µM and 133 µM, respectively.

As for `COc1ncccc1CN(C)S(=O)(=O)c1cccs1`, the IC50 in assay [1] was 286 µM; in assay [2] it was 159 µM.

As for `Cc1cncc(NS(=O)(=O)CCc2ccccc2)c1`, the IC50 in assay [1] was more than 501 µM; in assay [2], 314 µM.

Consider `CN1CCN(C(=O)Cn2ccc3ccc(Br)cc32)CC1`, for which the IC50 in assay [1] is 173 µM; in assay [2], 132 µM.

`CN(CC1CCOCC1)C(=O)NCc1ccco1`: the IC50 is 125 µM in assay [1] and 95.8 µM in assay [2].

For the compound `Clc1ccc(-c2noc(CN3CCCNCC3)n2)cc1`, the IC50 in assay [1] was 216 µM; in assay [2], 213 µM.

`CCOC(=O)c1ccccc1N1C(=O)C=CC1=O`: the IC50 was 83.7 µM in assay [1] and 60.4 µM in assay [2].

For the compound `CC(CN)CNC(=O)c1ccc(C(F)(F)F)cc1` (configuration not stated), the IC50 in assay [1] and in assay [2] was more than 501 µM throughout.

In the case of `O=C(NCC1CC1)c1noc(-c2ccccc2F)n1`, the IC50 in assay [1] was 99.7 µM; in assay [2], 16.4 µM.

`O=C(Cn1ccc2ccccc21)N1CCCC1`: the IC50 in assay [1] was 162 µM; in assay [2] it was 60 µM.

For `CCOc1ccc(CSc2nnc[nH]2)cc1`, the figures for the IC50 in assay [1] and in assay [2] were 198 µM and 218 µM, respectively.

In the case of `FC(F)(F)c1ccc(OC2CCNCC2)nc1`, the IC50 was 230 µM in assay [1] and 189 µM in assay [2].

Turning to `Cc1ccccc1-c1[nH][nH]c(=O)c1CCN`, the IC50 in assay [1] was more than 501 µM; in assay [2], 230 µM.

Consider `O=C(c1cccc(-n2cccn2)n1)N1CCCC1`, for which the values for the IC50 in assay [1] and in assay [2] were 163 µM and 59.6 µM, respectively.

As for `Ic1nnnn1-c1ccccc1`, the IC50 is 108 µM in assay [1] and 147 µM in assay [2].

On to `Fc1cccc(-c2noc(C3CCCN3)n2)c1` (configuration not stated), for which the IC50 in assay [1] was 286 µM; in assay [2], 271 µM.

As for `CC(C)(C)C(=O)CCN1CCCCC1`, the IC50 was 290 µM in assay [1] and 204 µM in assay [2].

As for `Cc1ccc(C(=O)NCc2ccc3c(c2)OCCO3)o1`, the figures for the IC50 in assay [1] and in assay [2] were 71.5 µM and 115 µM, respectively.

Turning to `CCCn1nnnc1NCc1ccsc1`, the IC50 was 132 µM in assay [1] and 171 µM in assay [2].

As to `COc1ncccc1CN(C)C(=O)c1ccccc1F`, the IC50 in assay [1] and in assay [2] was more than 501 µM each time.

With `Clc1cccc2nc(N3CCNCC3)oc12`, the results for the IC50 in assay [1] and in assay [2] were 349 µM and 144 µM, respectively.

For the compound `Cc1cc(C)cc(OCC(=O)N2CCOCC2)c1`, the IC50 in assay [1] was more than 501 µM; in assay [2], 155 µM.

With `Cc1ccccc1-c1nnn(CC(O)CC(F)(F)F)n1` (configuration not stated), the IC50 in assay [1] was 126 µM; in assay [2], 102 µM.

Regarding `CN1CCN(C(=O)c2cc(-c3cccs3)on2)CC1`, the figures for the IC50 in assay [1] and in assay [2] were 107 µM and 171 µM, respectively.

In the case of `CC(CNCC(F)(F)CO)c1ccccc1` (configuration not stated), the IC50 in assay [1] and in assay [2] was more than 501 µM throughout.

Regarding `OCC(O)CSCc1nc(-c2ccc(Cl)cc2)no1` (configuration not stated), the IC50 in assay [1] is 260 µM; in assay [2], 385 µM.

In the case of `COCCNC(=O)c1cc(-c2cccc(O)c2)on1`, the results for the IC50 in assay [1] and in assay [2] were 157 µM and 231 µM, respectively.

In the case of `CC(C)CN1C(=O)C(N)c2ccccc21` (configuration not stated), the IC50 in assay [1] and in assay [2] was more than 501 µM each time.

Turning to `COc1c(C(=O)N2CCOCC2)sc2ccc(F)cc12`, the IC50 in assay [1] is 284 µM; in assay [2] it was 305 µM.

In the case of `NCC(=O)N1CCCC(CCc2ccccc2F)C1` (configuration not stated), the IC50 in assay [1] is 256 µM; in assay [2], 271 µM.

As to `CCc1ccc(OCn2cc(N)cn2)cc1`, the IC50 in assay [1] is 134 µM; in assay [2], 292 µM.

As for `COc1ccc2c(c1)CN(C(=O)C1CCCOC1)CC2` (configuration not stated), the IC50 in assay [1] and in assay [2] was more than 501 µM throughout.

On to `NCCN1CCN(c2cccc(C(F)(F)F)c2)CC1`, for which the IC50 is 260 µM in assay [1] and 356 µM in assay [2].

Turning to `CCN1CC(c2nc3ccccc3[nH]2)CC1=O` (configuration not stated), the IC50 in assay [1] is 260 µM; in assay [2], 250 µM.

On to `COC(=O)NCCc1ccccc1OC`, for which the IC50 in assay [1] was more than 501 µM; in assay [2] it was 98.5 µM.

`Cc1cc(C)c(C)c(OCC(=O)N2CCN(C)CC2)c1`: the results for the IC50 in assay [1] and in assay [2] were 129 µM and 111 µM, respectively.

Regarding `CCn1ccc(C(=O)N(C)Cc2cccnc2OC)n1`, the results for the IC50 in assay [1] and in assay [2] were 212 µM and more than 501 µM, respectively.

As for `Cc1nn(CCCN)c(C)c1Br`, the values for the IC50 in assay [1] and in assay [2] were more than 501 µM and 266 µM, respectively.

Take `NCc1nc(-c2cccc(C(F)(F)F)c2)no1`: the IC50 in assay [1] is 130 µM; in assay [2], 262 µM.

Regarding `Cn1nccc1C(=O)N1CCC(Oc2ccccc2)C1` (configuration not stated), the figures for the IC50 in assay [1] and in assay [2] were 161 µM and 232 µM, respectively.

Consider `CCn1nnc(NCc2ccccc2)n1`, for which the IC50 in assay [1] is more than 501 µM; in assay [2], 229 µM.

With `O=C(Nc1cccc(Cl)c1)C1CCCN1` (configuration not stated), the IC50 was more than 501 µM in assay [1] and 147 µM in assay [2].

Take `CCOc1ccc(CNC(=O)CCn2cccn2)cc1`: the IC50 in assay [1] is more than 501 µM; in assay [2] it was 148 µM.

Consider `NC(=O)c1ccccc1NC(=O)CSc1ccccn1`, for which the IC50 in assay [1] was more than 501 µM; in assay [2], 116 µM.

Consider `Cc1cc(CN)on1`, for which the IC50 in assay [1] and in assay [2] was 293 µM each time.

As to `CCCNC(=O)CSCc1nc(-c2ccccc2)no1`, the IC50 in assay [1] is 437 µM; in assay [2], 239 µM.

Take `OCCNCCNCc1ccc(-c2ccccc2)o1`: the IC50 was 29.2 µM in assay [1] and 159 µM in assay [2].

Regarding `CCC[C@H]1CN(S(=O)(=O)c2ccnn2CCC)C[C@@H]1N`, the IC50 was more than 501 µM in assay [1] and 283 µM in assay [2].

For the compound `Cn1cc(CNC(=O)c2cccc(I)c2)cn1`, the IC50 in assay [1] was 70.2 µM; in assay [2] it was 166 µM.

`COc1ccc(Nc2ncccc2S(N)(=O)=O)cc1`: the IC50 in assay [1] and in assay [2] was more than 501 µM in each case.

As for `CCn1ccc(C(=O)NCc2ccco2)n1`, the IC50 in assay [1] is more than 501 µM; in assay [2] it was 232 µM.

As for `c1ccc2[nH]c(NCC3CCCO3)nc2c1` (configuration not stated), the IC50 in assay [1] was 166 µM; in assay [2], more than 501 µM.

`CC(C)(O)Cn1nnc(-c2cccs2)n1`: the IC50 in assay [1] and in assay [2] was more than 501 µM throughout.

With `COc1cc(C(=O)CCN(C)C)cc(OC)c1OC`, the IC50 in assay [1] was 338 µM; in assay [2], 196 µM.

As for `NC(c1cncc(Br)c1)C1CC1` (configuration not stated), the IC50 in assay [1] and in assay [2] was more than 501 µM in each case.

As to `COCCNC(=O)c1cc2cc(C)ccc2n1C`, the IC50 in assay [1] was more than 501 µM; in assay [2], 173 µM.

For `CCN1CCN(C(=O)c2ccc(C)c(C)c2)CC1`, the IC50 in assay [1] and in assay [2] was more than 501 µM each time.

For the compound `Cn1c(CO)nnc1SCC=Cc1ccccc1`, the IC50 in assay [1] is 289 µM; in assay [2] it was 240 µM.

Source of the values: ChEMBL document CHEMBL3988442, “University of Dundee, Small-Polar-MMV Screening Library” (2021).
